Laboratory results reported in PubChem BioAssay (NCI).
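Five concentrations, 48 hours, 96-well plates. Abbreviation: GI50, concentration required for 50% inhibition of growth. At the TGI there is no net growth.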

What was measured:
Test in all cases: inhibition of tumour cell growth, NCI panel, 48 h
KM12 colon = tested on: KM12 colon
RXF 393 renal = tested on: RXF 393 renal
HCT-116 colon = tested on: HCT-116 colon
HCC-2998 colon = tested on: HCC-2998 colon
OVCAR-3 ovarian = tested on: OVCAR-3 ovarian
K-562 leukemia = tested on: K-562 leukemia
MDA-MB-231 breast = tested on: MDA-MB-231 breast
UO-31 renal = tested on: UO-31 renal
COLO 205 colon = tested on: COLO 205 colon
HL-60(TB) leukemia = tested on: HL-60(TB) leukemia
SK-MEL-2 melanoma = tested on: SK-MEL-2 melanoma
RPMI-8226 leukemia = tested on: RPMI-8226 leukemia
TK-10 renal = tested on: TK-10 renal
HOP-92 NSCLC = tested on: HOP-92 NSCLC
NCI/ADR-RES ovarian = tested on: NCI/ADR-RES ovarian
SF-539 CNS = tested on: SF-539 CNS
LOX IMVI melanoma = tested on: LOX IMVI melanoma
A498 renal = tested on: A498 renal
SF-295 CNS = tested on: SF-295 CNS
CCRF-CEM leukemia = tested on: CCRF-CEM leukemia
HT29 colon = tested on: HT29 colon
ACHN renal = tested on: ACHN renal
MALME-3M melanoma = tested on: MALME-3M melanoma
SW-620 colon = tested on: SW-620 colon
PC-3 prostate = tested on: PC-3 prostate
NCI-H23 lung = tested on: NCI-H23 lung
HCT-15 colon = tested on: HCT-15 colon
OVCAR-5 ovarian = tested on: OVCAR-5 ovarian
MCF7 breast = tested on: MCF7 breast

Which GI50 (KM12 colon) does the source give for Cc1ccc2c(-c3ccnc(Nc4ccc5c(c4)OCCO5)n3)c(-c3ccc(C(F)(F)F)cc3)nn2n1 here?
The GI50 was 14.1 µM.

And the TGI (KM12 colon)?
Its TGI is > 25 µM.

What about the GI50 (RXF 393 renal) of the same molecule?
Its GI50 is 4.39 µM.

And the TGI (RXF 393 renal)?
Its TGI is > 25 µM.

What about the GI50 (HCT-116 colon) of the same molecule?
Its GI50 is 7.32 µM.

What about the TGI (HCT-116 colon) of the same molecule?
Its TGI is > 25 µM.

And the GI50 (HCC-2998 colon)?
Its GI50 is 12.3 µM.

And the TGI (HCC-2998 colon)?
The TGI was > 25 µM.

And the GI50 (OVCAR-3 ovarian)?
Its GI50 is > 23.6 µM.

And the TGI (OVCAR-3 ovarian)?
The TGI was > 25 µM.

And the GI50 (K-562 leukemia)?
Its GI50 is 20.3 µM.

And the TGI (K-562 leukemia)?
The TGI was > 25 µM.

And the GI50 (MDA-MB-231 breast)?
Its GI50 is 1.25 µM.

What about the TGI (MDA-MB-231 breast) of the same molecule?
The TGI was > 25 µM.

And the GI50 (UO-31 renal)?
The GI50 was 2.41 µM.

What about the TGI (UO-31 renal) of the same molecule?
Its TGI is > 25 µM.

And the GI50 (COLO 205 colon)?
Its GI50 is 3.17 µM.

And the TGI (COLO 205 colon)?
The TGI was > 25 µM.

And the GI50 (HL-60(TB) leukemia)?
Its GI50 is 6.81 µM.

And the TGI (HL-60(TB) leukemia)?
The TGI was 19.4 µM.

And the GI50 (SK-MEL-2 melanoma)?
Its GI50 is 8.42 µM.

And the TGI (SK-MEL-2 melanoma)?
Its TGI is > 25 µM.

What about the GI50 (RPMI-8226 leukemia) of the same molecule?
The GI50 was 2.13 µM.

And the TGI (RPMI-8226 leukemia)?
Its TGI is 13.5 µM.

And the GI50 (TK-10 renal)?
The GI50 was 8.11 µM.

What about the TGI (TK-10 renal) of the same molecule?
The TGI was > 25 µM.

What about the GI50 (HOP-92 NSCLC) of the same molecule?
The GI50 was 1.4 µM.

What about the TGI (HOP-92 NSCLC) of the same molecule?
The TGI was 19.2 µM.

And the GI50 (NCI/ADR-RES ovarian)?
Its GI50 is 5.55 µM.

And the TGI (NCI/ADR-RES ovarian)?
Its TGI is > 25 µM.

And the GI50 (SF-539 CNS)?
Its GI50 is > 18.7 µM.

What about the TGI (SF-539 CNS) of the same molecule?
The TGI was > 25 µM.

What about the GI50 (LOX IMVI melanoma) of the same molecule?
The GI50 was 1.5 µM.

What about the TGI (LOX IMVI melanoma) of the same molecule?
The TGI was 6.68 µM.

And the GI50 (A498 renal)?
Its GI50 is 2.13 µM.

What about the TGI (A498 renal) of the same molecule?
Its TGI is 18 µM.

And the GI50 (SF-295 CNS)?
The GI50 was 7.01 µM.

What about the TGI (SF-295 CNS) of the same molecule?
Its TGI is > 25 µM.

What about the GI50 (CCRF-CEM leukemia) of the same molecule?
Its GI50 is 11.7 µM.

What about the TGI (CCRF-CEM leukemia) of the same molecule?
Its TGI is > 25 µM.

And the GI50 (HT29 colon)?
Its GI50 is 4.42 µM.

What about the TGI (HT29 colon) of the same molecule?
Its TGI is > 25 µM.

And the GI50 (ACHN renal)?
The GI50 was 16.5 µM.

What about the TGI (ACHN renal) of the same molecule?
The TGI was > 25 µM.

And the GI50 (MALME-3M melanoma)?
Its GI50 is > 25 µM.

What about the TGI (MALME-3M melanoma) of the same molecule?
Its TGI is > 25 µM.

What about the GI50 (SW-620 colon) of the same molecule?
Its GI50 is > 25 µM.

What about the TGI (SW-620 colon) of the same molecule?
The TGI was > 25 µM.

What about the GI50 (PC-3 prostate) of the same molecule?
The GI50 was 10.1 µM.

What about the TGI (PC-3 prostate) of the same molecule?
Its TGI is > 25 µM.

And the GI50 (NCI-H23 lung)?
Its GI50 is 14.3 µM.

What about the TGI (NCI-H23 lung) of the same molecule?
Its TGI is > 25 µM.

What about the GI50 (HCT-15 colon) of the same molecule?
Its GI50 is 8.69 µM.

What about the TGI (HCT-15 colon) of the same molecule?
Its TGI is > 25 µM.

And the GI50 (OVCAR-5 ovarian)?
Its GI50 is 6 µM.

What about the TGI (OVCAR-5 ovarian) of the same molecule?
The TGI was > 25 µM.

And the GI50 (MCF7 breast)?
The GI50 was 5.66 µM.

What about the TGI (MCF7 breast) of the same molecule?
The TGI was > 25 µM.
